Where two headings read alike, the source gives them in different places.

The conditions of data set [1]: cited from earlier work.

In the case of `O=C(O)COCC1OC2OC3C(COCC(=O)O)OC(OC4C(COCC(=O)O)OC(OC5C(COCC(=O)O)OC(OC6C(COCC(=O)O)OC(OC7C(COCC(=O)O)OC(OC8C(COCC(=O)O)OC(OC1C(O)C2O)C(O)C8O)C(O)C7O)C(O)C6O)C(O)C5O)C(O)C4O)C(O)C3O` (stereo not drawn) [Heptacarboxylic acid β-CD], under “water”, the “Water Solubility” value is more than 300 g/100 ml H2 O. On to `C[N+](C)(C)CC1OC2OC3C(CO)OC(OC4C(CO)OC(OC5C(CO)OC(OC6C(CO)OC(OC7C(CO)OC(OC8C(CO)OC(OC1C(O)C2O)C(O)C8O)C(O)C7O)C(O)C6O)C(O)C5O)C(O)C4O)C(O)C3O.[Cl-]` (stereo not drawn) [Monotrimethylammonium (chloride) β-CD], for which the “Water Solubility” value (25° C.) was more than 200 g/100 ml H2 O. Hydroxypropyl β-CD: in data set [1], the “Water Solubility” value is 115 g/100 ml H2 O.

Regarding “mono-6-dihydroxyphosphonyl-6-deoxy β-CD [Monophosphoric acid β-CD]”, the “Water Solubility” value (water) is listed as more than 250 g/100 ml H2 O.
